Test results published in patent publication US20190343908A1, “Therapeutic Combination for the Treatment of Cancer” (Nerium Biotechnology Inc., priority 2011, published 2019).

Key:
Assay type in all cases: cell-based, human
[1] = system: COLO699N lung cancer cell line; assay: Methyl-Tetrazolium viability assay, COLO699N; design: key to MTT Average: absorbance (optical density) at 570 nm, second wavelength subtracted; settings: for Average MTT 24 h / Average MTT 48 h / Average MTT 72 h: COLO699N Run 1; for ABSORBANCE: COLO699N, 0.1 μg/mL cisplatin
Text: (§1) Three different viability assays were chosen to complement each other and yielded results dependent on concentration and cell line: the Methyl Tetrazolium dye assay, the Sulforhodamine B fluorescent dye assay, and the Crystal Violet dye assay.
(§2) The Methyl-Tetrazolium dye assay measures the activity of enzymes in mitochondria. The dye precursor is taken up by cells, where it undergoes reduction to the purple formazan. It measures only the mitochondrial activity and, thus, it is not always a reliable indication of whether the cells themselves are alive or dead, since even a recently dead cell has […] enzyme activity in mitochondria. Intracellular glucose concentration, pH, and time before assay all affect the measurements.
(§3) The Methyl Tetrazolium, Sulforhodamine B, and Crystal Violet assays were used to assess cell viabilities. The incubation times were 24 hours, 48 hours, and 72 hours. The Nerium oleander extract Anvirzel™ (a hot water extract of oleander obtained from Salud Integral, Honduras) was tested in concentrations ranging from 0.01 ng/mL to 10 ng/mL.
(§4) Cells were detached by trypsinization (Trypsin-0.25% EDTA, Invitrogen, 25200-072) during the logarithmic phase of culture growth and plated in 96-well plates (18.000 cells/well) (Corning, Costar 359) in a final volume of 200 μl of medium per well. […] The absorbance was measured after 24 hours, 48 hours, and 72 hours of incubation.
(§5) For the Methyl-Tetrazolium assay, the dye (Sigma, M2128; 5 mg/mL, diluted in phosphate-buffered saline) was added to each well and plates were incubated for 3 hours at 37° C. After the end of the incubation period, the medium was discarded and the cells were rinsed with phosphate-buffered saline. Finally, the formazan crystals were dissolved in dimethylsulphoxide (Sigma, D4540).
(§6) The optical density of each plate was measured on a μQuant spectrophotometer and the data were analyzed with Gen5 software (μQuant Biomolecular Spectrophotometer MQX200 and Gen5™ Microplate Data Collection & Analysis software, BioTek® Instruments. Inc, April 2008). Absorbance was measured at 570 nm for all assays and a second wavelength was measured in order to subtract noise. For the Methyl-Tetrazolium assay this second wavelength was 630 nm and for the Sulforhodamine B and Crystal Violet assays it was 690 nm.

[2] = system: HCT-116 (colorectal cancer); assay: Methyl-Tetrazolium viability assay, HCT-116; design: key: absorbance (optical density) at 570 nm, second wavelength subtracted; settings: for Average MTT: HCT-116
Text: as §1, §2, §3, §4, §5, §6

HT55 (colorectal cancer) = assay: Methyl-Tetrazolium viability assay, HT55; design: key: absorbance (optical density) at 570 nm, second wavelength subtracted
Text: as §1, §2, §3, §4, §5, §6

## N.N.[Cl][Pt][Cl] [cisplatin]
[1]; 0.1 μg/ml CDDP
  Average MTT 24 h: 0.122
[1]; 0.1 μg/ml CDDP, 48 h
  Average MTT 48 h: 0.179
[1]; 0.1 μg/ml CDDP, 72 h
  Average MTT 72 h: 0.237
[1]; 1 μg/ml CDDP
  Average MTT 24 h: 0.023
[1]; 1 μg/ml CDDP, 48 h
  Average MTT 48 h: 0.016
[1]; 1 μg/ml CDDP, 72 h
  Average MTT 72 h: 0.019
[1]; 10 μg/ml CDDP
  Average MTT 24 h: 0.384
[1]; 10 μg/ml CDDP, 48 h
  Average MTT 48 h: 0.012
[1]; 10 μg/ml CDDP, 72 h
  Average MTT 72 h: 0.016
[1]; 100 μg/ml CDDP
  Average MTT 24 h: 0.033
[1]; 100 μg/ml CDDP, 48 h
  Average MTT 48 h: 0.011
[1]; 100 μg/ml CDDP, 72 h
  Average MTT 72 h: 0.014
[1]; 48 h
  ABSORBANCE: 0.636
[1]; 72 h
  ABSORBANCE: 0.73
[1]; Run 2, 24 h, 0.1 μg/ml CDDP
  MTT Average: 0.362
[1]; Run 2, 24 h, 1 μg/ml CDDP
  MTT Average: 0.055
[1]; Run 2, 24 h, 10 μg/ml CDDP
  MTT Average: 0.178
[1]; Run 2, 24 h, 100 μg/ml CDDP
  MTT Average: 0.04
[1]; Run 2, 48 h, 0.1 μg/ml CDDP
  MTT Average: 0.636
[1]; Run 2, 48 h, 1 μg/ml CDDP
  MTT Average: 0.04
[1]; Run 2, 48 h, 10 μg/ml CDDP
  MTT Average: 0.049
[1]; Run 2, 48 h, 100 μg/ml CDDP
  MTT Average: 0.018
[1]; Run 2, 72 h, 0.1 μg/ml CDDP
  MTT Average: 0.73
[1]; Run 2, 72 h, 1 μg/ml CDDP
  MTT Average: 0.044
[1]; Run 2, 72 h, 10 μg/ml CDDP
  MTT Average: 0.057
[1]; Run 2, 72 h, 100 μg/ml CDDP
  MTT Average: 0.068
[1]; Run 3, 24 h, 0.1 μg/ml CDDP
  MTT Average: 0.365
[1]; Run 3, 24 h, 1 μg/ml CDDP
  MTT Average: 0.04
[1]; Run 3, 24 h, 10 μg/ml CDDP
  MTT Average: 0.148
[1]; Run 3, 24 h, 100 μg/ml CDDP
  MTT Average: 0.041
[1]; Run 3, 48 h, 0.1 μg/ml CDDP
  MTT Average: 0.442
[1]; Run 3, 48 h, 1 μg/ml CDDP
  MTT Average: 0.063
[1]; Run 3, 48 h, 10 μg/ml CDDP
  MTT Average: 0.041
[1]; Run 3, 48 h, 100 μg/ml CDDP
  MTT Average: 0.025
[1]; Run 3, 72 h, 0.1 μg/ml CDDP
  MTT Average: 0.638
[1]; Run 3, 72 h, 1 μg/ml CDDP
  MTT Average: 0.078
[1]; Run 3, 72 h, 10 μg/ml CDDP
  MTT Average: 0.026
[1]; Run 3, 72 h, 100 μg/ml CDDP
  MTT Average: 0.027
[2]; HCT-116, Run 3, 24 h, 0.1 μg/ml CDDP
  MTT Average: 0.16
[2]; HCT-116, Run 3, 24 h, 1 μg/ml CDDP
  MTT Average: 0.041
[2]; HCT-116, Run 3, 24 h, 10 μg/ml CDDP
  MTT Average: 0.09
[2]; HCT-116, Run 3, 24 h, 100 μg/ml CDDP
  MTT Average: 0.044
[2]; HCT-116, Run 3, 48 h, 0.1 μg/ml CDDP
  MTT Average: 0.302
[2]; HCT-116, Run 3, 48 h, 1 μg/ml CDDP
  MTT Average: 0.039
[2]; HCT-116, Run 3, 48 h, 10 μg/ml CDDP
  MTT Average: 0.108
[2]; HCT-116, Run 3, 48 h, 100 μg/ml CDDP
  MTT Average: 0.037
[2]; HCT-116, Run 3, 72 h, 0.1 μg/ml CDDP
  MTT Average: 0.385
[2]; HCT-116, Run 3, 72 h, 1 μg/ml CDDP
  MTT Average: 0.041
[2]; HCT-116, Run 3, 72 h, 10 μg/ml CDDP
  MTT Average: 0.147
[2]; HCT-116, Run 3, 72 h, 100 μg/ml CDDP
  MTT Average: 0.043
[2]; Run 1, 24 h, 0.1 μg/ml CDDP
  Average MTT: 0.215
[2]; Run 1, 24 h, 1 μg/ml CDDP
  Average MTT: 0.037
[2]; Run 1, 24 h, 10 μg/ml CDDP
  Average MTT: 0.072
[2]; Run 1, 24 h, 100 μg/ml CDDP
  Average MTT: 0.038
[2]; Run 1, 48 h, 0.1 μg/ml CDDP
  Average MTT: 0.184
[2]; Run 1, 48 h, 1 μg/ml CDDP
  Average MTT: 0.027
[2]; Run 1, 48 h, 10 μg/ml CDDP
  Average MTT: 0.054
[2]; Run 1, 48 h, 100 μg/ml CDDP
  Average MTT: 0.031
[2]; Run 1, 72 h, 0.1 μg/ml CDDP
  Average MTT: 0.332
[2]; Run 1, 72 h, 1 μg/ml CDDP
  Average MTT: 0.03
[2]; Run 1, 72 h, 10 μg/ml CDDP
  Average MTT: 0.033
[2]; Run 1, 72 h, 100 μg/ml CDDP
  Average MTT: 0.031
[2]; Run 2, 24 h, 0.1 μg/ml CDDP
  Average MTT: 0.111
[2]; Run 2, 24 h, 1 μg/ml CDDP
  Average MTT: 0.053
[2]; Run 2, 24 h, 10 μg/ml CDDP
  Average MTT: 0.081
[2]; Run 2, 24 h, 100 μg/ml CDDP
  Average MTT: 0.072
[2]; Run 2, 48 h, 0.1 μg/ml CDDP
  Average MTT: 0.179
[2]; Run 2, 48 h, 1 μg/ml CDDP
  Average MTT: 0.044
[2]; Run 2, 48 h, 10 μg/ml CDDP
  Average MTT: 0.045
[2]; Run 2, 48 h, 100 μg/ml CDDP
  Average MTT: 0.04
[2]; Run 2, 72 h, 0.1 μg/ml CDDP
  Average MTT: 0.296
[2]; Run 2, 72 h, 1 μg/ml CDDP
  Average MTT: 0.054
[2]; Run 2, 72 h, 10 μg/ml CDDP
  Average MTT: 0.045
[2]; Run 2, 72 h, 100 μg/ml CDDP
  Average MTT: 0.037
HT55 (colorectal cancer); HT55, Run 1, 24 h, 0.1 μg/ml CDDP
  MTT Average: 0.096
HT55 (colorectal cancer); HT55, Run 1, 24 h, 1 μg/ml CDDP
  MTT Average: 0.02
HT55 (colorectal cancer); HT55, Run 1, 24 h, 10 μg/ml CDDP
  MTT Average: 0.054
HT55 (colorectal cancer); HT55, Run 1, 24 h, 100 μg/ml CDDP
  MTT Average: 0.019
HT55 (colorectal cancer); HT55, Run 1, 48 h, 0.1 μg/ml CDDP
  MTT Average: 0.177
HT55 (colorectal cancer); HT55, Run 1, 48 h, 1 μg/ml CDDP
  MTT Average: 0.015
HT55 (colorectal cancer); HT55, Run 1, 48 h, 10 μg/ml CDDP
  MTT Average: 0.03
HT55 (colorectal cancer); HT55, Run 1, 48 h, 100 μg/ml CDDP
  MTT Average: 0.012
HT55 (colorectal cancer); HT55, Run 1, 72 h, 0.1 μg/ml CDDP
  MTT Average: 0.315
HT55 (colorectal cancer); HT55, Run 1, 72 h, 1 μg/ml CDDP
  MTT Average: 0.025
HT55 (colorectal cancer); HT55, Run 1, 72 h, 10 μg/ml CDDP
  MTT Average: 0.026
HT55 (colorectal cancer); HT55, Run 1, 72 h, 100 μg/ml CDDP
  MTT Average: 0.017
HT55 (colorectal cancer); HT55 Run 2, 24 h, 0.1 μg/ml CDDP
  MTT Average: 0.215
HT55 (colorectal cancer); HT55 Run 2, 24 h, 1 μg/ml CDDP
  MTT Average: 0.023
HT55 (colorectal cancer); HT55 Run 2, 24 h, 10 μg/ml CDDP
  MTT Average: 0.053
HT55 (colorectal cancer); HT55 Run 2, 24 h, 100 μg/ml CDDP
  MTT Average: 0.018
HT55 (colorectal cancer); HT55 Run 2, 48 h, 0.1 μg/ml CDDP
  MTT Average: 0.381
HT55 (colorectal cancer); HT55 Run 2, 48 h, 1 μg/ml CDDP
  MTT Average: 0.028
HT55 (colorectal cancer); HT55 Run 2, 48 h, 10 μg/ml CDDP
  MTT Average: 0.031
HT55 (colorectal cancer); HT55 Run 2, 48 h, 100 μg/ml CDDP
  MTT Average: 0.025
HT55 (colorectal cancer); HT55 Run 2, 72 h, 0.1 μg/ml CDDP
  MTT Average: 0.488
HT55 (colorectal cancer); HT55 Run 2, 72 h, 1 μg/ml CDDP
  MTT Average: 0.032
HT55 (colorectal cancer); HT55 Run 2, 72 h, 10 μg/ml CDDP
  MTT Average: 0.028
HT55 (colorectal cancer); HT55 Run 2, 72 h, 100 μg/ml CDDP
  MTT Average: 0.021
HT55 (colorectal cancer); HT55 Run 3, 24 h, 0.1 μg/ml CDDP
  MTT Average: 0.205
HT55 (colorectal cancer); HT55 Run 3, 24 h, 1 μg/ml CDDP
  MTT Average: 0.035
HT55 (colorectal cancer); HT55 Run 3, 24 h, 10 μg/ml CDDP
  MTT Average: 0.206
HT55 (colorectal cancer); HT55 Run 3, 24 h, 100 μg/ml CDDP
  MTT Average: 0.028
HT55 (colorectal cancer); HT55 Run 3, 48 h, 0.1 μg/ml CDDP
  MTT Average: 0.331
HT55 (colorectal cancer); HT55 Run 3, 48 h, 1 μg/ml CDDP
  MTT Average: 0.04
HT55 (colorectal cancer); HT55 Run 3, 48 h, 10 μg/ml CDDP
  MTT Average: 0.361
HT55 (colorectal cancer); HT55 Run 3, 48 h, 100 μg/ml CDDP
  MTT Average: 0.038
HT55 (colorectal cancer); HT55 Run 3, 72 h, 0.1 μg/ml CDDP
  MTT Average: 0.359
HT55 (colorectal cancer); HT55 Run 3, 72 h, 1 μg/ml CDDP
  MTT Average: 0.032
HT55 (colorectal cancer); HT55 Run 3, 72 h, 10 μg/ml CDDP
  MTT Average: 0.353
HT55 (colorectal cancer); HT55 Run 3, 72 h, 100 μg/ml CDDP
  MTT Average: 0.031
